Assay results from patent US20240158412A1 (Faxian Therapeutics, LLC, priority 2021, published 2024).

Molecular target: USP7 (Homo sapiens, UniProt Q93009)
Assay: biochemical
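Also: fluorescence intensity readout of USP7 enzymatic activity, reaction incubated 90 min at room temperature.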

Sequence of USP7 (Q93009 whole entry): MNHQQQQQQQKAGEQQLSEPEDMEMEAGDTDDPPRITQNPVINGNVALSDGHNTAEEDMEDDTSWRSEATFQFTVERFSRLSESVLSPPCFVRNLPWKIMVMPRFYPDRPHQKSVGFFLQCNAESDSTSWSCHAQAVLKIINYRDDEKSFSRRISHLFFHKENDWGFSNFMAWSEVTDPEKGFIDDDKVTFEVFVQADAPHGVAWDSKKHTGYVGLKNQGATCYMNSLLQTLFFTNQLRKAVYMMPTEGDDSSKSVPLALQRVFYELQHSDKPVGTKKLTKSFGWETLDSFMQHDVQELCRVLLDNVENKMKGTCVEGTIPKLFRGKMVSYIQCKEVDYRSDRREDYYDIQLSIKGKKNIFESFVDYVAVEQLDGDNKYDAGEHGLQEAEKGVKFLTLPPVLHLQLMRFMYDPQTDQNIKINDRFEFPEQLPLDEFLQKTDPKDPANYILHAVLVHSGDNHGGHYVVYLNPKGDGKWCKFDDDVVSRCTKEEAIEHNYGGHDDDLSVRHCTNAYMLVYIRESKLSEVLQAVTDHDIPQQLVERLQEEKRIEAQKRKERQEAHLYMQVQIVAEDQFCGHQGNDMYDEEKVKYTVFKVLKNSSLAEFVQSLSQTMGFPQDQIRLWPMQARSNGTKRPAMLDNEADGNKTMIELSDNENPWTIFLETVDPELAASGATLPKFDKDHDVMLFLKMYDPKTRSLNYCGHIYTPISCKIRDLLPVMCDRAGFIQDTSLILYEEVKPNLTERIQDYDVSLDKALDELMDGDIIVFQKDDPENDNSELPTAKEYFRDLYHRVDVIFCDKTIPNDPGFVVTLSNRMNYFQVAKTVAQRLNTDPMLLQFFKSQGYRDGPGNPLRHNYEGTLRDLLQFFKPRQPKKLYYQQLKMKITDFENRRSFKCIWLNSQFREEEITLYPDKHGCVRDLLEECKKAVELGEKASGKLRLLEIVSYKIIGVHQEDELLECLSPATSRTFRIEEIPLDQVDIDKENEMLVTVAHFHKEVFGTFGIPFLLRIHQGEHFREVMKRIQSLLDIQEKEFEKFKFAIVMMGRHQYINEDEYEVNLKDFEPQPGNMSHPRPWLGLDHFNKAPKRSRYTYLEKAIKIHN
Experimental: Example A. Biochemical Assay of USP7 Inhibitor Potency (IC50)
Fluorescence intensity assay of USP7 activity in the presence USP7 inhibitors. Recombinant USP7 protein (catalogue number E-519) and the fluorescence substrate ubiquitin-rhodamine 110 (Rh110) (catalogue number U-555) were purchased from Boston Biochem (840 Memorial Drive, Cambridge, MA 02139). The reaction was carried out in buffer 20 mM HEPES, pH 7.3, 150 mM NaCl, 1 mM TCEP, 125 μg/mL BSA at room temperature in a black 384-well Microplate (Greiner, catalog number 781076).
Test compounds were dissolved in DMSO to make 50 mM stock solution. […] In wells of a black 384-well Microplate, 15 μl of 100 pM of USP7 enzyme was added to each well with pre-diluted compounds and incubated at room temperature for 30 minutes, followed by addition of 10 μl of ubiquitin-rhodamine 110 (Rh110) substrate to reach 160 nM final concentration. The reaction mixtures were incubated for additional 90 minutes at room temperature. The fluorescence signal of the digested substrate was measured on an EnVision microplate reader (PerkinElmer,), using excitation at 485 nm and emission at 535 nm. The IC50 values were calculated using XLfit software.

SMILES	IC50
O=C1CCC(=O)N1Cc1cc2nccc(-c3cc(Cl)cc4c3N([C@@H]3CN(C[C@H](O)C(F)(F)F)C5(CCC5)C3)CCC4)c2s1 (single isomer, unassigned) [Example 143a]	10 to 100 nM
CN1CC(=O)N(Cc2cc3nccc(-c4cc(Cl)cc5c4N([C@H]4CCNC4)CCC5)c3s2)C1=O [Example 74, (S)-3-((7-(6-chloro-1-(pyrrolidin-3-yl)-1,2,3,4-tetrahydroquinolin-8-yl)thieno[3,2-b]pyridin-2-yl)methyl)-1-methylimidazolidine-2,4-dione]	< 10 nM
O=C1COC(=O)N1Cc1cc2nccc(-c3cc(Cl)cc4c3N(C3CNC3)CCC4)c2s1 [Example 27, 3-[[7-[1-(azetidin-3-yl)-6-chloro-3,4-dihydro-2H-quinolin-8-yl]thieno[3,2-b]pyridin-2-yl]methyl]oxazolidine-2,4-dione]	10 to 100 nM
CC1(C)C[C@H](N2CCCc3cc(C#N)cc(-c4ccnc5cc(Cn6ncc(C7CC7)cc6=O)sc45)c32)CN1 [Example 128, (S)-8-(2-((4-cyclopropyl-6-oxopyridazin-1(6H)-yl)methyl)thieno[3,2-b]pyridin-7-yl)-1-(5,5-dimethylpyrrolidin-3-yl)-1,2,3,4-tetrahydroquinoline-6-carbonitrile]	< 10 nM
O=C1C2CC2C(=O)N1Cc1cc2nccc(-c3cc(Cl)cc4c3N([C@@H]3CN[C@@H](CO)C3)CCC4)c2s1 (stereo partly drawn) [Example 185, 3-((7-(6-chloro-1-((3S,5R)-5-(hydroxymethyl)pyrrolidin-3-yl)-1,2,3,4-tetrahydroquinolin-8-yl)thieno[3,2-b]pyridin-2-yl)methyl)-3-azabicyclo[3.1.0]hexane-2,4-dione]	< 10 nM
O=C1CCC(=O)N1Cc1cc2ncnc(-c3cc(Cl)cc4c3N([C@H]3CNC5(CCC5)C3)C[C@H]3C[C@@H]43)c2s1 [Example 167b, 1-((4-((1aS,7bR)-6-chloro-3-((R)-5-azaspiro[3.4]octan-7-yl)-1a,2,3,7b-tetrahydro-1H-cyclopropa[c]quinolin-4-yl)thieno[3,2-d]pyrimidin-6-yl)methyl)pyrrolidine-2,5-dione]	> 1000 nM
O=C1CCC(=O)N1C1(c2cc3nccc(-c4cc(Cl)cc5c4N([C@H]4CCNC4)CCC5)c3s2)CC1 [Example 110]	101 to 1000 nM
Cc1ccnn(Cc2cc3nccc(-c4cc(C(F)(F)F)cc5c4N([C@@H]4CNC6(CCC6)C4)CCO5)c3s2)c1=O [Example 176b, (S)-2-((7-(4-(5-azaspiro[3.4]octan-7-yl)-7-(trifluoromethyl)-3,4-dihydro-2H-benzo[b][1,4]oxazin-5-yl)thieno[3,2-b]pyridin-2-yl)methyl)-4-methylpyridazin-3(2H)-one]	< 10 nM
O=C1CCC(=O)N1Cc1sc2c(-c3cc(Cl)cc4c3N(C3CCNC3)CCC4)ccnc2c1F (single isomer, unassigned) [Example 108a]	< 10 nM
O=C1CCC(=O)N1Cc1cc2nccc(-c3cc(Cl)cc4c3N([C@@H]3CN(CCc5nnn[nH]5)C5(CCC5)C3)CCC4)c2s1 [Example 144, (S)-1-((7-(1-(5-(2-(1H-tetrazol-5-yl)ethyl)-5-azaspiro[3.4]octan-7-yl)-6-chloro-1,2,3,4-tetrahydroquinolin-8-yl)thieno[3,2-b]pyridin-2-yl)methyl)pyrrolidine-2,5-dione]	10 to 100 nM
O=C1CCC(=O)N1Cc1cc2nccc(-c3cc(Cl)cc4c3N(C3CNC3)CCC4)c2s1 [Example 1, 1-((7-(1-(azetidin-3-yl)-6-chloro-1,2,3,4-tetrahydroquinolin-8-yl)thieno[3,2-b]pyridin-2-yl)methyl)pyrrolidine-2,5-dione]	10 to 100 nM
O=C1CCC(=O)N1Cc1cc2nccc(-c3cccc4c3N([C@@H]3CCNC3)CCO4)c2s1 (single isomer, unassigned) [Example 111b]	> 1000 nM
O=c1ccn(CC2CC2)c(=O)n1Cc1cc2nccc(-c3cc(Cl)cc4c3N([C@H]3CCNC3)CCC4)c2s1 [Example 62, (S)-3-((7-(6-chloro-1-(pyrrolidin-3-yl)-1,2,3,4-tetrahydroquinolin-8-yl)thieno[3,2-b]pyridin-2-yl)methyl)-1-(cyclopropylmethyl)pyrimidine-2,4(1H,3H)-dione]	< 10 nM
O=C1CCC(=O)N1Cc1cc2nccc(-c3cccc4c3N([C@H]3CCNC3)CCO4)c2s1 (single isomer, unassigned) [Example 111a]	10 to 100 nM
O=C1CCC(=O)N1Cc1cc2nccc(-c3cc(Cl)cc4c3N([C@@H]3CNC5(CCC5)C3)C[C@H]3C[C@@H]43)c2s1 [Example 165c, 1-((7-((1aS,7bR)-6-chloro-3-((S)-5-azaspiro[3.4]octan-7-yl)-1a,2,3,7b-tetrahydro-1H-cyclopropa[c]quinolin-4-yl)thieno[3,2-b]pyridin-2-yl)methyl)pyrrolidine-2,5-dione]	< 10 nM
CC(F)(F)Cn1ccc(=O)n(Cc2cc3nccc(-c4cc(Cl)cc5c4N([C@H]4CCNC4)CCC5)c3s2)c1=O [Example 103, (S)-3-((7-(6-chloro-1-(pyrrolidin-3-yl)-1,2,3,4-tetrahydroquinolin-8-yl)thieno[3,2-b]pyridin-2-yl)methyl)-1-(2,2-difluoropropyl)pyrimidine-2,4(1H,3H)-dione]	< 10 nM

SMILES	IC50
Cc1ccnn(Cc2cc3nccc(-c4cc(C(F)(F)F)cc5c4N(C4CNC6(CCC6)C4)CCO5)c3s2)c1=O (single isomer, unassigned) [Example 176a]	101 to 1000 nM
C[C@H]1CCc2cc(Cl)cc(-c3ccnc4cc(CN5C(=O)CCC5=O)sc34)c2N1[C@H]1CCNC1 (single isomer, unassigned) [Example 44b]	101 to 1000 nM
CC(C)(C)c1cnn(Cc2cc3nccc(-c4cc(C#N)cc5c4N([C@@H]4CN[C@@H](CO)C4)C[C@@H]4C[C@H]54)c3s2)c(=O)c1 (single isomer, unassigned) [Example 192b]	< 10 nM
O=C1CCC(=O)N1Cc1cc2nccc(-c3cc(Cl)cc4c3N(C3CNC3)CCC43CC3)c2s1 [Example 48, 1-((7-(1′-(azetidin-3-yl)-6′-chloro-2′,3′-dihydro-1′H-spiro[cyclopropane-1,4′-quinolin]-8′-yl)thieno[3,2-b]pyridin-2-yl)methyl)pyrrolidine-2,5-dione]	10 to 100 nM
O=c1cc(C2CC2)cnn1Cc1cc2nccc(-c3cc(Cl)cc4c3N([C@@H]3CN[C@@H](CO)C3)CCC4)c2s1 [Example 186, 2-[[7-[6-chloro-1-[(3S,5R)-5-(hydroxymethyl)pyrrolidin-3-yl]-3,4-dihydro-2H-quinolin-8-yl]thieno[3,2-b]pyridin-2-yl]methyl]-5-cyclopropyl-pyridazin-3-one]	< 10 nM
O=C1CCC(=O)N1Cc1cc2nccc(-c3cc(Cl)cc4c3N(C3CCNC3)C[C@@H]3C[C@H]43)c2s1 (single isomer, unassigned) [Example 113c]	10 to 100 nM
O=c1ccn(C2CC2)c(=O)n1Cc1cc2nccc(-c3cc(C(F)(F)F)cc4c3N(C3CNC5(CCC5)C3)CCC4)c2s1 (single isomer, unassigned) [Example 162b]	101 to 1000 nM
CC1(C)CC(N2CCCc3cc(C#N)cc(-c4ccnc5cc(Cn6ncc(C(C)(C)C)cc6=O)sc45)c32)CN1 (stereo in doubt) [Example 132, (S)-8-(2-((4-(tert-butyl)-6-oxopyridazin-1(6H)-yl)methyl)thieno[3,2-b]pyridin-7-yl)-1-(5,5-dimethylpyrrolidin-3-yl)-1,2,3,4-tetrahydroquinoline-6-carbonitrile]	< 10 nM
O=C1CCC(=O)N1Cc1cc2nccc(-c3cc(Cl)cc4c3N([C@@H]3CNC5(CCC5)C3)C[C@@H]3C[C@H]43)c2s1 [Example 165a, 1-((7-((1aR,7bS)-6-chloro-3-((S)-5-azaspiro[3.4]octan-7-yl)-1a,2,3,7b-tetrahydro-1H-cyclopropa[c]quinolin-4-yl)thieno[3,2-b]pyridin-2-yl)methyl)pyrrolidine-2,5-dione]	10 to 100 nM
O=c1ccn(C(F)F)c(=O)n1Cc1cc2nccc(-c3cc(Cl)cc4c3N([C@@H]3CNC5(CCC5)C3)CCC4)c2s1 [Example 149, (S)-3-((7-(6-chloro-1-(5-azaspiro[3.4]octan-7-yl)-1,2,3,4-tetrahydroquinolin-8-yl)thieno[3,2-b]pyridin-2-yl)methyl)-1-(difluoromethyl)pyrimidine-2,4(1H,3H)-dione]	< 10 nM
N#Cc1cc2c(c(-c3ccnc4cc(CN5C(=O)CCC5=O)sc34)c1)N(C1CNC1)CCC2 [Example 32, 1-(azetidin-3-yl)-8-[2-[(2,5-dioxopyrrolidin-1-yl)methyl]thieno[3,2-b]pyridin-7-yl]-3,4-dihydro-2H-quinoline-6-carbonitrile]	10 to 100 nM
O=c1ccn(CC2(C(F)F)CC2)c(=O)n1Cc1cc2nccc(-c3cc(Cl)cc4c3N([C@H]3CCNC3)CCC4)c2s1 [Example 69, (S)-3-((7-(6-chloro-1-(pyrrolidin-3-yl)-1,2,3,4-tetrahydroquinolin-8-yl)thieno[3,2-b]pyridin-2-yl)methyl)-1-((1-(difluoromethyl)cyclopropyl)methyl)pyrimidine-2,4(1H,3H)-dione]	< 10 nM
CC(C)(C)c1cnn(Cc2cc3nccc(-c4cc(Cl)cc5c4N(C4CNC(CO)(CO)C4)CCO5)c3s2)c(=O)c1 (stereo in doubt) [Example 213b, (S)-2-((7-(4-(5,5-bis(hydroxymethyl)pyrrolidin-3-yl)-7-chloro-3,4-dihydro-2H-benzo[b][1,4]oxazin-5-yl)thieno[3,2-b]pyridin-2-yl)methyl)-5-(tert-butyl)pyridazin-3(2H)-one]	< 10 nM
O=C1C2CC2C(=O)N1Cc1cc2nccc(-c3cc(Cl)cc4c3N([C@@H]3CNC(CO)(CO)C3)CCO4)c2s1 (single isomer, unassigned) [Example 212b]	10 to 100 nM
O=c1ccn(CC(F)F)c(=O)n1Cc1cc2nccc(-c3cc(Cl)cc4c3N(C3CNC3)CCC4)c2s1 [Example 23, 3-[[7-[1-(azetidin-3-yl)-6-chloro-3,4-dihydro-2H-quinolin-8-yl]thieno[3,2-b]pyridin-2-yl]methyl]-1-(2,2-difluoroethyl)pyrimidine-2,4-dione]	< 10 nM
CC(C)CN1CC[C@H](N2CCCc3cc(Cl)cc(-c4ccnc5cc(CN6C(=O)CCC6=O)sc45)c32)C1 [Example 102, (S)-1-((7-(6-chloro-1-(1-isobutylpyrrolidin-3-yl)-1,2,3,4-tetrahydroquinolin-8-yl)thieno[3,2-b]pyridin-2-yl)methyl)pyrrolidine-2,5-dione]	10 to 100 nM
